The source made the active and inactive calls. No cut-off for these calls is given here.
Assays:
Ramos [1] = experiment: (§1) Downregulation of BLK level in human Ramos cells at 0.3 uM measured after 12 hrs by Western blot analysis; format: functional
[2] = as §1; format: functional
[3] = target: Tyrosine-protein kinase SYK (Homo sapiens, UniProt P43405); experiment: Inhibition of SYK phosphorylation in human Ramos cells incubated for 1 hr; format: cell-based
[4] = target: Tyrosine-protein kinase BTK (Homo sapiens, UniProt Q06187); experiment: Inhibition of full length N-terminal GST tagged BTK (2 to 659 end residues) (unknown origin) expressed in Sf21insect cells by time resolved fluorescence based assay; design: species or system Sf21
Sequence of Tyrosine-protein kinase BTK (Q06187 whole entry): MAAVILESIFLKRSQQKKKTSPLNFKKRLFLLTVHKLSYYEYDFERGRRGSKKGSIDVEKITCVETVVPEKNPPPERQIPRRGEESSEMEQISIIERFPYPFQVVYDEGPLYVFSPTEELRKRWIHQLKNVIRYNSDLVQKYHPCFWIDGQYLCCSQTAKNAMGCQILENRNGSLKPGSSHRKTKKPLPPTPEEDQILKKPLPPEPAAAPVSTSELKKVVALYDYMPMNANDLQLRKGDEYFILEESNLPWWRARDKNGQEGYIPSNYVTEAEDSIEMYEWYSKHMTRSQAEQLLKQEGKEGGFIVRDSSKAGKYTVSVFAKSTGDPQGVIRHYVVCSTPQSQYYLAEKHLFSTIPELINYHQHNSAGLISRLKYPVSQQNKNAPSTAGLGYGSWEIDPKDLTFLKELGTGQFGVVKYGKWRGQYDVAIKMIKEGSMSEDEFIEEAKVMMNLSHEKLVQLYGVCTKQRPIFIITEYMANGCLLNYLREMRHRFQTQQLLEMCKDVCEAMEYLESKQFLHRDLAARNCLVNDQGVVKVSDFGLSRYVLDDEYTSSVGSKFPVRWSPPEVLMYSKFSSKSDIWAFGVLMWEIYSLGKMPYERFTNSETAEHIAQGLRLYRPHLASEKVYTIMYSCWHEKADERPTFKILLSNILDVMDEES

[5] = target: Tyrosine-protein kinase Lck (Homo sapiens) (UniProt P06239); experiment: Induction of degradation of LCK in human Jurkat cells assessed as maximum degradation at > 1 uM incubated for 12 hrs by Western blot analysis relative to control; format: cell-based
Sequence of Tyrosine-protein kinase Lck (Homo sapiens) (P06239 2-509 limits assumed): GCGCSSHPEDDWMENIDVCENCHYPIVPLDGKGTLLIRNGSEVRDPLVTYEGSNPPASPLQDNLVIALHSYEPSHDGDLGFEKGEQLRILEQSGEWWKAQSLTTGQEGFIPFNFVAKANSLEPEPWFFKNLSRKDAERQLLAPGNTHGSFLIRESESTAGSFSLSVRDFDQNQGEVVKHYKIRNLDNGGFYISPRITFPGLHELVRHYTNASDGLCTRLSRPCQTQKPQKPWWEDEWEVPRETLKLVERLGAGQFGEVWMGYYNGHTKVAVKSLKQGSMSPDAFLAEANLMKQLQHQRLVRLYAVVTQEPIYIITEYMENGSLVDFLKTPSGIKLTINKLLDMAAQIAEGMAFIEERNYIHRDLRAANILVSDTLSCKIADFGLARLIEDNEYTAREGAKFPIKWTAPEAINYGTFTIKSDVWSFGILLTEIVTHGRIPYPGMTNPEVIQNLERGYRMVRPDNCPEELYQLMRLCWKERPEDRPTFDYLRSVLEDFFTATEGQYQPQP

DOHH-2 [6] = experiment: Antiproliferative activity against human DOHH-2 cells at 0.1 to 0.3 uM measured after 72 hrs by cell titer glo luminescent cell viability assay; format: functional, cell-based; conditions: dose 0.1-0.3 µM
HBL1 = experiment: Antiproliferative activity against human HBL1 cells at 0.1 to 0.3 uM measured after 72 hrs by cell titer glo luminescent cell viability assay; format: functional, cell-based; conditions: dose 0.1-0.3 µM
SUD4 [7] = experiment: Antiproliferative activity against human SU-DHL-4 cells at 0.1 to 0.3 uM measured after 72 hrs by cell titer glo luminescent cell viability assay; format: functional, cell-based; conditions: dose 0.1-0.3 µM
Pfeiffer = experiment: Antiproliferative activity against human Pfeiffer cells at 0.1 to 0.3 uM measured after 72 hrs by cell titer glo luminescent cell viability assay; format: functional, cell-based; conditions: dose 0.1-0.3 µM
SU-DHL-6 [8] = experiment: Antiproliferative activity against human SU-DHL-6 cells at 0.1 to 0.3 uM measured after 72 hrs by cell titer glo luminescent cell viability assay; format: functional, cell-based; conditions: dose 0.1-0.3 µM
RS4-11 = experiment: Antiproliferative activity against human RS4-11 cells at 0.1 to 0.3 uM measured after 72 hrs by cell titer glo luminescent cell viability assay; format: functional, cell-based; conditions: dose 0.1-0.3 µM
OPM-2 = experiment: Antiproliferative activity against human OPM-2 cells at 0.1 to 0.3 uM measured after 72 hrs by cell titer glo luminescent cell viability assay; format: functional, cell-based; conditions: dose 0.1-0.3 µM
OCI-Ly7 = experiment: Antiproliferative activity against human OCILY7 cells at 0.1 to 0.3 uM measured after 72 hrs by cell titer glo luminescent cell viability assay; format: functional, cell-based; conditions: dose 0.1-0.3 µM
Raji = experiment: Antiproliferative activity against human Raji cells at 0.1 to 0.3 uM measured after 72 hrs by cell titer glo luminescent cell viability assay; format: functional, cell-based; conditions: dose 0.1-0.3 µM
Ramos [9] = experiment: Antiproliferative activity against human Ramos cells at 0.1 to 0.3 uM measured after 72 hrs by cell titer glo luminescent cell viability assay; format: functional, cell-based; conditions: dose 0.1-0.3 µM
NAMALVA = experiment: Antiproliferative activity against human NAMALVA cells at 0.1 to 0.3 uM measured after 72 hrs by cell titer glo luminescent cell viability assay; format: functional, cell-based; conditions: dose 0.1-0.3 µM
TMD8 = experiment: Antiproliferative activity against human TMD8 cells at 0.1 to 0.3 uM measured after 72 hrs by cell titer glo luminescent cell viability assay; format: functional, cell-based; conditions: dose 0.1-0.3 µM
RPMI-8226 = experiment: Antiproliferative activity against human RPMI-8226 cells at 0.1 to 0.3 uM measured after 72 hrs by cell titer glo luminescent cell viability assay; format: functional, cell-based; conditions: dose 0.1-0.3 µM
CCRF-CEM = experiment: Antiproliferative activity against human CCRF-CEM cells at 0.1 to 0.3 uM measured after 72 hrs by cell titer glo luminescent cell viability assay; format: functional, cell-based; conditions: dose 0.1-0.3 µM
6T-CEM = experiment: Antiproliferative activity against human 6T-CEM cells at 0.1 to 0.3 uM measured after 72 hrs by cell titer glo luminescent cell viability assay; format: functional, cell-based; conditions: dose 0.1-0.3 µM
MOLT-4 = experiment: Antiproliferative activity against human MOLT-4 cells at 0.1 to 0.3 uM measured after 72 hrs by cell titer glo luminescent cell viability assay; format: functional, cell-based; conditions: dose 0.1-0.3 µM
Jurkat = experiment: Antiproliferative activity against human Jurkat cells at 0.1 to 0.3 uM measured after 72 hrs by cell titer glo luminescent cell viability assay; format: functional, cell-based; conditions: dose 0.1-0.3 µM
A-431 = experiment: Antiproliferative activity against human A-431 cells at 0.1 to 0.3 uM measured after 72 hrs by cell titer glo luminescent cell viability assay; format: functional, cell-based; conditions: dose 0.1-0.3 µM
PC-9 = experiment: Antiproliferative activity against human PC-9 cells at 0.1 to 0.3 uM measured after 72 hrs by cell titer glo luminescent cell viability assay; format: functional, cell-based; conditions: dose 0.1-0.3 µM
A549 = experiment: Antiproliferative activity against human A549 cells at 0.1 to 0.3 uM measured after 72 hrs by cell titer glo luminescent cell viability assay; format: functional, cell-based; conditions: dose 0.1-0.3 µM
A-375 = experiment: Antiproliferative activity against human A-375 cells at 0.1 to 0.3 uM measured after 72 hrs by cell titer glo luminescent cell viability assay; format: functional, cell-based; conditions: dose 0.1-0.3 µM
DOHH-2 [10] = experiment: Growth inhibition of human DOHH-2 cells measured after 72 hrs by cell titer glo luminescent cell viability assay; format: functional
SUD4 [11] = experiment: Growth inhibition of human SU-DHL-4 cells measured after 72 hrs by cell titer glo luminescent cell viability assay; format: functional
SU-DHL-6 [12] = experiment: Growth inhibition of human SU-DHL-6 cells measured after 72 hrs by cell titer glo luminescent cell viability assay; format: functional
DOHH-2 [13] = experiment: Downregulation of CDK2 level in human DOHH-2 cells at 1 uM measured after 48 hrs by Western blot analysis; format: functional, cell-based
SU-DHL-6 [14] = experiment: Downregulation of CDK2 level in human SU-DHL-6 cells at 1 uM measured after 48 hrs by Western blot analysis; format: functional, cell-based

With CN1CCN(CCOc2cc(OC3CCOCC3)c3c(Nc4c(Cl)ccc5c4OCO5)ncnc3c2)CC1 the Activity (Ramos [1]) was “Active”.

In the case of CCC(=O)Nc1cccc(Nc2ncc(NC(=O)c3cc(NC(=O)c4cccc(C(F)(F)F)c4)ccc3C)cn2)c1, the Activity [2] is reported as over 85% and the IC50 [3] is reported as under 0.1 µM.

Cc1ccc(NC(=O)c2ccc3ccccc3c2)cc1C(=O)Nc1cnc(Nc2cccc(N)c2)nc1 showed an IC50 [3] of under 0.1 µM.

C=CC(=O)NCCC(=O)c1cccc(Nc2ncc(NC(=O)c3cc(NC(=O)c4cccc(-c5ccc(F)cc5)c4)ccc3C)cn2)c1 showed an Activity [2] of over 85%.

Cc1ccc(NC(=O)C[C@@]23C[C@@H]4C[C@@H](C[C@@](O)(C4)C2)C3)cc1C(=O)Nc1cnc(Nc2cccc(N)c2)nc1 gave an IC50 [4] of 0.855 µM.

With Cc1ccc(NC(=O)c2ccc(-c3cccc(C(F)(F)F)c3)cc2)cc1C(=O)Nc1cnc(Nc2cccc(N)c2)nc1 the IC50 [4] was 2.56 µM, the IC50 [3] was 2.9 µM and the Emax [5] was under 50%. For the same compound, the Activity (DOHH-2 [6]) was “Active”, the Activity (HBL1) was “inactive” and the Activity (SUD4 [7]) was “Active”. For the same compound, the Activity (Pfeiffer) was “Active”, the Activity (SU-DHL-6 [8]) was “Active” and the Activity (RS4-11) was “inactive”. For the same compound, the Activity (OPM-2) was “inactive”, the Activity (OCI-Ly7) was “inactive” and the Activity (Raji) was “inactive”. For the same compound, the Activity (Ramos [9]) was “inactive”, the Activity (NAMALVA) was “inactive” and the Activity (TMD8) was “inactive”. The Activity (RPMI-8226) was “inactive”, the Activity (CCRF-CEM) was “inactive” and the Activity (6T-CEM) was “inactive”. The Activity (MOLT-4) was “inactive”, the Activity (Jurkat) was “inactive” and the Activity (A-431) was “inactive”. For the same compound, the Activity (PC-9) was “inactive”, the Activity (A549) was “inactive” and the Activity (A-375) was “inactive”. For the same compound, the GI50 (DOHH-2 [10]) was 0.13 µM, the GI50 (SUD4 [11]) was 0.18 µM and the GI50 (SU-DHL-6 [12]) was 0.36 µM. For the same compound, the Activity (DOHH-2 [13]) was “Active” and the Activity (SU-DHL-6 [14]) was “Active”.

In the case of C=CC(=O)N1CCC[C@@H](n2nc(-c3ccc(Oc4ccccc4)cc3)c3c(N)ncnc32)C1, the Activity (Ramos [1]) is reported as “inactive”.

For C=CC(=O)Nc1cccc(Nc2nc(Nc3ccc(OCCOC)cc3)ncc2F)c1, the Activity (Ramos [1]) was “Active”.

With C=CC(=O)N1CCC(c2cccc(Nc3ncc(NC(=O)c4cc(NC(=O)c5ccc6cnccc6c5)ccc4C)cn3)c2)CC1 the Activity (Ramos [1]) was “Active”.

In the case of Cc1nc(Nc2ncc(C(=O)Nc3c(C)cccc3Cl)s2)cc(N2CCN(CCO)CC2)n1, the Activity (Ramos [1]) is reported as “Active”.

In the case of Cc1ccc(-c2nn(C(C)(C)C)c3ncnc(N)c23)cc1, the Activity (Ramos [1]) is reported as “inactive”, the GI50 (DOHH-2 [10]) is reported as 3.7 µM and the GI50 (SUD4 [11]) is reported as over 10 µM. The GI50 (SU-DHL-6 [12]) was 4.7 µM.

In the case of Cc1ccc(NC(=O)c2ccc3cnccc3c2)cc1C(=O)Nc1cnc(Nc2cccc(C3CCN(C(=O)/C=C/CN(C)C)CC3)c2)nc1, the Activity (Ramos [1]) is reported as “Active”.

Compound Cc1ccc(NC(=O)CC23C[C@H]4C[C@@H](C2)C[C@@H](C3)C4)cc1C(=O)Nc1cnc(Nc2cccc(N)c2)nc1 has an IC50 [4] of 0.338 µM.

In the case of Cc1ccc(NC(=O)c2ccc(Oc3ccccc3)cc2)cc1C(=O)Nc1cnc(Nc2cccc(N)c2)nc1, the IC50 [4] is reported as 0.991 µM, the IC50 [3] is reported as 2.73 µM and the Emax [5] is reported as under 50%.

Work on Cc1ccc(NC(=O)Cc2ccc(-c3ccccc3)cc2)cc1C(=O)Nc1cnc(Nc2cccc(N)c2)nc1 yielded an IC50 [4] of 5.81 µM, an Emax [5] of under 50% and a GI50 (DOHH-2 [10]) of 2.5 µM. For the same compound, the GI50 (SUD4 [11]) was 8.9 µM and the GI50 (SU-DHL-6 [12]) was 6.2 µM.
